The record followed here is PubChem BioAssay (NCI).

Test systems include SF-539 CNS; HCC-2998 colon; DU-145 prostate; HCT-15 colon; UO-31 renal; A549 NSCLC; LOX IMVI melanoma; MDA-MB-435.
Common to all, as to assay: growth of human tumour cells (NCI), 48 h

Each structure is given as a SMILES string. Where “and” joins values, the source holds several entries; their conditions need not be identical. Equal values may be shown once.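 How tested: cells in 96-well plates exposed to compound for 48 hours at five concentrations. GI50 = concentration required for 50% inhibition of growth. TGI marks complete inhibition of growth.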

Consider `COc1ccc(C2CC(=O)c3c(O)c(OC)c(OC)c(OC)c3O2)cc1O` (stereo unspecified), for which the GI50 was 0.0666 µM with SF-539 CNS; 0.999 µM in the test on HCC-2998 colon; 0.225 µM in the test on DU-145 prostate; 0.0459 µM with HCT-15 colon; 2.18 µM in the test on UO-31 renal; 0.817 µM in the test with A549 NSCLC. Also, in the test with LOX IMVI melanoma, the GI50 was 0.0701 µM. In addition, the TGI with SF-539 CNS, with HCC-2998 colon, in the test on DU-145 prostate, in the test with HCT-15 colon, with UO-31 renal and in the test with A549 NSCLC was more than 100 µM in each case. The molecule also came in with a TGI with LOX IMVI melanoma of more than 100 µM.

`c1ccc2c3c(ccc2c1)-c1c(ccc2c(NCCCCN4CCCCC4)cccc12)C3`: the GI50 was 1.79 µM in the test on SF-539 CNS; 1.91 µM in the test with MDA-MB-435; 1.63 µM in the test with HCC-2998 colon; 1.77 µM in the test with DU-145 prostate; 1.86 µM in the test on HCT-15 colon; 2.61 µM in the test with UO-31 renal. Moreover, the GI50 in the test with A549 NSCLC is 1.47 µM. The TGI amounted to 3.44 µM in the test with SF-539 CNS; 3.31 µM in the test with MDA-MB-435; 3.49 µM in the test with HCC-2998 colon; 3.33 µM in the test on DU-145 prostate; 3.79 µM in the test with HCT-15 colon; 7.66 µM in the test with UO-31 renal. The TGI in the test with A549 NSCLC amounted to 2.79 µM.

As for `CCOC(=O)N1C=CC(=C2C(=C3C=CN(C(=O)OCC)C=C3)C(=C3C=CN(C(=O)OCC)C=C3)C2=C2C=CN(C(=O)OCC)C=C2)C=C1`, the TGI in the test on SF-539 CNS was more than 100 µM; with MDA-MB-435, 98.8 µM; with DU-145 prostate it was more than 100 µM; in the test with HCT-15 colon it was 44.1 µM; in the test on UO-31 renal, 38.5 µM; with A549 NSCLC, more than 100 µM. For the same molecule, the TGI in the test on LOX IMVI melanoma was found to be 45.8 µM.

As to `CC(C)(C)c1cc(-c2nc3c(F)c(F)c(F)c(F)c3[nH]2)cc(C(C)(C)C)c1O`, the GI50 in the test on SF-539 CNS, with MDA-MB-435, in the test with DU-145 prostate, in the test with HCT-15 colon, with UO-31 renal and in the test on A549 NSCLC was more than 100 µM each time. Besides, the GI50 with LOX IMVI melanoma is more than 100 µM. Also, the TGI in the test with SF-539 CNS, in the test with MDA-MB-435, in the test with DU-145 prostate, in the test on HCT-15 colon, with UO-31 renal and in the test on A549 NSCLC was more than 100 µM each time. Also, in the test with LOX IMVI melanoma, the TGI is more than 100 µM.

For `Cc1ccc(NC(=O)c2cc3ccccc3cc2O)c(C)c1.Cc1ccc(NC(=O)c2cc3ccccc3cc2[O-])c(C)c1.[Ni+2]`, the GI50 in the test with SF-539 CNS was 4.75 µM; in the test on MDA-MB-435, 3.38 µM; in the test on HCC-2998 colon, 2.63 µM; in the test on DU-145 prostate, 3.27 µM; in the test with HCT-15 colon, 3.24 µM; in the test on UO-31 renal, 3.79 µM. The GI50 in the test with A549 NSCLC is 3.44 µM. Besides, the TGI in the test with SF-539 CNS was found to be 53.2 µM; in the test on MDA-MB-435, 13.1 µM; in the test with HCC-2998 colon, 6.74 µM; in the test on DU-145 prostate it was 13.2 µM; in the test on HCT-15 colon it was 17.2 µM; in the test on UO-31 renal, 11.9 µM. Also, in the test on A549 NSCLC, the TGI is 15.6 µM.

On to `CC(=O)[O][Bi]([c]1ccccc1)[c]1ccccc1`, for which the GI50 in the test on SF-539 CNS is 11.1 µM; in the test on MDA-MB-435, 7.26 µM; with DU-145 prostate, 21.3 µM; with HCT-15 colon, 1.92 µM; in the test on UO-31 renal, 2.08 µM; with A549 NSCLC, 25.5 µM. The GI50 in the test on LOX IMVI melanoma was 1.98 µM. Besides, the TGI was found to be 24.3 µM in the test on SF-539 CNS; 22.2 µM with MDA-MB-435; 50.2 µM in the test on DU-145 prostate; 4.06 µM with HCT-15 colon; 7.01 µM with UO-31 renal; 86.7 µM with A549 NSCLC. Besides, in the test on LOX IMVI melanoma, the TGI was found to be 5.24 µM.

With `C/C=C/C1=CN2C(=O)c3cc(OC4OC(C)C(NC)C(C)(O)C4O)c(C)c(O)c3N=C[C@@H]2C1` (stereo partly specified), the GI50 in the test with SF-539 CNS is 0.0743 µM and < 0.01 µM; with MDA-MB-435 it was 0.0819 µM; in the test with DU-145 prostate, 0.0617 µM and < 0.01 µM; with UO-31 renal it was 0.0926 µM and < 0.01 µM; with LOX IMVI melanoma it was 0.0619 µM and < 0.01 µM. Besides, the TGI with MDA-MB-435 stood at 0.286 µM; in the test with DU-145 prostate, 10.7 µM; with HCT-15 colon, 11 µM; in the test on A549 NSCLC it was 24.8 µM; with LOX IMVI melanoma, 4.06 µM.

Consider `CCCCCCNCCCNc1c2ccccc2nc2cccc([N+](=O)[O-])c12`, for which the GI50 was 0.0507 µM in the test with SF-539 CNS, 0.145 µM in the test on UO-31 renal and 0.044 µM in the test with LOX IMVI melanoma. The TGI is 0.307 µM and 0.225 µM in the test on SF-539 CNS; 0.0226 µM and 0.0234 µM in the test on MDA-MB-435; 0.021 µM in the test with HCC-2998 colon; more than 100 µM in the test with HCT-15 colon; 0.393 µM and 0.331 µM in the test on UO-31 renal; 0.113 µM and 0.131 µM in the test on A549 NSCLC. Besides, the TGI with LOX IMVI melanoma was 0.0818 µM and 0.295 µM.

Consider `Nc1c2ccccc2nc2ccccc12` (tested in a mixture with another compound), for which the GI50 in the test with SF-539 CNS was 2.44 µM; with MDA-MB-435, 2.57 µM; in the test with HCC-2998 colon it was 1.85 µM; in the test with DU-145 prostate, 2.38 µM; with HCT-15 colon it was 2.03 µM; with UO-31 renal it was 1.41 µM. The GI50 in the test on LOX IMVI melanoma was 1.87 µM. Moreover, the TGI in the test on SF-539 CNS worked out at 8.26 µM; with MDA-MB-435, 9 µM; in the test on HCC-2998 colon, 4.6 µM; in the test on DU-145 prostate it was 6.51 µM; in the test with HCT-15 colon it was 10.4 µM; in the test on UO-31 renal it was 3.84 µM. The TGI in the test on LOX IMVI melanoma worked out at 5.94 µM.

As to `Nc1ncnc2c1ncn2C1OC(COC2C(CO)OC(OC(C(=O)O)C(O)C(OP(=O)(O)O)C(O)C(=O)O)C(O)C2O)C(O)C1O` (stereo unspecified), the TGI with SF-539 CNS, in the test on MDA-MB-435, in the test on HCC-2998 colon, in the test on HCT-15 colon, in the test with A549 NSCLC and in the test with LOX IMVI melanoma was more than 100 µM in each case.

In the case of `C/C(=C\c1ccn(-c2ccc(N)cc2F)n1)[C@@H]1C[C@@H]2O[C@]2(C)CCC[C@H](C)[C@H](O)[C@@H](C)C(=O)C(C)(C)[C@@H](O)CC(=O)O1`, the GI50 with SF-539 CNS is 0.0352 µM; with HCC-2998 colon, 0.0347 µM; in the test on DU-145 prostate, 0.024 µM; in the test on HCT-15 colon, 0.0226 µM; in the test on UO-31 renal, 0.176 µM; in the test with A549 NSCLC, 0.0355 µM. Also, in the test on LOX IMVI melanoma, the GI50 was 0.0241 µM. For the same molecule, the TGI in the test on SF-539 CNS was 0.296 µM; in the test on HCC-2998 colon, more than 10.6 µM; in the test on DU-145 prostate it was 0.285 µM; with HCT-15 colon, more than 50 µM; in the test on UO-31 renal, more than 50 µM; in the test with A549 NSCLC, more than 50 µM. Besides, in the test with LOX IMVI melanoma, the TGI is more than 50 µM.
